Data: article PMC5602898, “Ornithine uptake and the modulation of drug sensitivity in Trypanosoma brucei” (FASEB journal : official publication of the Federation of …, 2017)

Assays:
TbAAT2-4 = molecular target: T1, TbAAT2-4 (Trypanosoma brucei, UniProt Q57Y06); assay: competition of radiolabelled histidine uptake in S. cerevisiae […]Δ8AA; type: cell-based; settings: 200 μM histidine, 2 mM competitor, pH 5.5, 30 °C
T1 construct: gene Tb04.1D20.560; full-length ORF amplified from T. brucei 427 genomic DNA, vector pDR197, expressed in Saccharomyces cerevisiae 22Δ8AA; no tag told
T1 sequence (Q57Y06 entry or part of it): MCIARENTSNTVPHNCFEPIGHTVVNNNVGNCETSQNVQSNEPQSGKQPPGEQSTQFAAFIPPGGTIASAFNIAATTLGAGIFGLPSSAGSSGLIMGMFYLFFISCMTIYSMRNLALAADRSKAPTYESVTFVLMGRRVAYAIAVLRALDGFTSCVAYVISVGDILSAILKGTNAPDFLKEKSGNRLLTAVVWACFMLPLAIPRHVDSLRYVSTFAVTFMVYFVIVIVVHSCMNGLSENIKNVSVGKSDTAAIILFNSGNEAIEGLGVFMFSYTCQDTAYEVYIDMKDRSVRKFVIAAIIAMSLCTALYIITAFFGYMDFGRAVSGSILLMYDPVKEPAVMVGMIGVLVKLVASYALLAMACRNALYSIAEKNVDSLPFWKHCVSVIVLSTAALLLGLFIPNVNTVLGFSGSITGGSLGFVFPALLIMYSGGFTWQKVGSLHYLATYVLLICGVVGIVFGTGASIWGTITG

[1] = system: N[C@@H](Cc1c[nH]cn1)C(=O)O; assay: cells, lysate or membranes; settings: L-[3H]histidine, labelled compound, 50 mM potassium phosphate pH 5.5, 0.6 M sorbitol, 100 mM glucose preincubation, 30 °C, empty-vector uptake subtracted
[2] = substrate: NCCC[C@H](N)C(=O)O; assay: cells, lysate or membranes; settings: L-[3H]ornithine, labelled compound, 50 mM potassium phosphate pH 5.5, 0.6 M sorbitol, 100 mM glucose preincubation, 30 °C, empty-vector uptake subtracted

With `N=C(N)NCCC[C@H](N)C(=O)O` [arginine] the “% of control uptake at 2 mM” value (TbAAT2-4) was “TbAAT2-4-mediated histidine uptake was inhibited by several amino acids, including arginine and lysine”.

For `NCCCC[C@H](N)C(=O)O` [lysine], the “% of control uptake at 2 mM” value (TbAAT2-4; also supports yeast growth on lysine) was “TbAAT2-4-mediated histidine uptake was inhibited by several amino acids, including arginine and lysine”.

Work on “TbAAT2-4 (Trypanosoma brucei brucei TREU927)” yielded a Km [1] of 20.5 ± 8.6 µM.

B1: TbAAT10-1 (Trypanosoma brucei brucei TREU927) (protein)
chain: MSNVRGNITPAVVYASNEPNALNASDDGIKNYEAYEDIQSNNSESKFAPFSKLSKKIAAVIPPGGIFASAFNIAATTLGAGIFGLPSTANGSGLVMGILYLVIINCMTIYSMYNLALAAERSKALTYEGVTFVVLGRWAAYAIAAVRAFDGFTSCIAYVISVGDIFSSILKGTDAPEFWKGNTGNRLLTALLWLCCMLPLVIPRHVDSLRHVSTCAVTFMVYFVIVIVVHSCLNGLPENIKDVSVGKSDTAAIILFNSGNAAVEGLGVFMFSYTCQDTAYEIYMDMKDRSVRKFVISSAIAMCMCTVLYILTVFFGYMDFGRDVTGSILLMYDPVNEPAVMVGMIGVLVKLIASYALLAMACRNALYSIAGKNADVLPFWKHCASVVTLSVAALVLGLFIPKVNTVLGFAGSITGGSLGYIFPSLLLMYSGGFTWQRVGPFHYLVAYGLLISGVVGVVFGTGATIWGTIVG
B1 was tested, and the Km [2] was 4.3 ± 1.5 µM.
